Earlier results on 2 compounds are cited in US20260284079A1, “LIPID PRODRUGS OF ALLOPR[…] USES THEREOF” (Seaport Therapeutics, Inc., priority 2023, published 2026).

One series deals with salivary cortisol levels. Particulars: literature; cited from earlier work.
The conditions of series [1]: due to extensive first-pass metabolism; cited from earlier work.

Consider `CCNC1=Nc2ccc(Cl)cc2C(C)(c2ccccc2)O1` (centres unmarked) [Etifoxine], for which the “blunting of increase in salivary cortisol levels following a TSST” value with salivary cortisol levels was “does not blunt an increase in salivary cortisol levels”. As for `CC(=O)[C@H]1CC[C@H]2[C@@H]3CC[C@H]4C[C@H](O)CC[C@]4(C)[C@H]3CC[C@]12C` [allopregnanolone], the oral bioavailability entry in series [1] is given as “less than 5%”.
